Like-named read-outs stand apart in the source and are kept apart here.
How the values were obtained:
[1] = tested on: SGC-7901 human gastric adenocarcinoma cancer cell line; experiment: MTT in vitro antitumor (antiproliferative) assay, SGC-7901; format: cell-based; settings: for IC50: Homo sapiens, read-out: IC50 SGC-7901; for fold greater antiproliferative activity (lower IC50) than irinotecan, SGC-7901 cells: IC50 ratio vs irinotecan
Description: (§1) The in vitro antitumor activities were evaluated on human cancer cell lines SGC-7901 and HeLa by the MTT assay, using irinotecan as the reference compound.
(§2) The in vitro antitumor activity was evaluated on two human cancer cell lines with the MTT method. SGC-7901 is a human gastric adenocarcinoma cancer cell line and HeLa is a human cervical carcinoma cell line. Cells were provided by the Jilin Province Tumor Institute. Cells were maintained in IMDM medium supplemented with 10% fetal calf serum, 2 mM glutamine, 100 U/mL penicillin, and 100 μg/mL streptomycin, at 37 °C in a humidified atmosphere containing 5% CO2. The human cancer lines SGC-7901 and HELA at a concentration of […] were incubated in a 96-well microtiter plate (100 μL in every well) for 24 h (37 °C, 5%CO2). Then the cells were incubated continuously for 72 h following various concentrations of test drugs were added. The concentrations are 50 μM, 10 μM, 2 μM, 0.4 μM, 0.08 μM, 0.016 μM, 0.0032 μM, respectively. After the 100 μL 0.05% MTT solution was added to each well, the plate was incubated for a further 4 h before removal of medium, the media removed. Formazan crystals were dissolved with 100 μL DMSO, then the absorbance was detected at 490 nm.

[2] = tested on: HeLa human cervical carcinoma cell line; experiment: MTT in vitro antitumor (antiproliferative) assay, HeLa; format: cell-based
Description: as §1, §2

AChE from electric eel = AChE from electric eel (Electrophorus electricus, UniProt O42275); experiment: AChE inhibition assay (modified Ellman method); format: biochemical; settings: phosphate buffer pH 7.3, 37 °C
AChE from electric eel, sequence (O42275 24-633): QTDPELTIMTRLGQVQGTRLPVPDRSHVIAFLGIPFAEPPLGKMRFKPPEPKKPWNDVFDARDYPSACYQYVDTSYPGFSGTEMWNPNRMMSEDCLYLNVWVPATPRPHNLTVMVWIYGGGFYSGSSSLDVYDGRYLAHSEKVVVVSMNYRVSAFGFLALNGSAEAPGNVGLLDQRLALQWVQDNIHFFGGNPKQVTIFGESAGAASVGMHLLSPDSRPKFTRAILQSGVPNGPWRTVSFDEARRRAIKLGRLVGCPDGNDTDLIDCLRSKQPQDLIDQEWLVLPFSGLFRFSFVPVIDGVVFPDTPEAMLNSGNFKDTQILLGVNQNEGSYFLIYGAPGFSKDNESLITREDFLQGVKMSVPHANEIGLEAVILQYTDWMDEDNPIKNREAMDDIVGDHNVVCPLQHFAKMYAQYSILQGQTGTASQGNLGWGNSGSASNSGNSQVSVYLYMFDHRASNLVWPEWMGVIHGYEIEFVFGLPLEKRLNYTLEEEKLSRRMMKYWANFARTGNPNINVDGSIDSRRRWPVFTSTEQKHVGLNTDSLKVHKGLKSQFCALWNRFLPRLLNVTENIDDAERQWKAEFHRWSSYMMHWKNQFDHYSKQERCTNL
Source text: Irinotecan has been reported to be a potent inhibiter of AChE, and inhibition of this enzyme causes acute cholinergic diarrhea. Unlike irinotecan, the compounds we assayed were only weak inhibitors of AChE. […] One possible explanation is that the active site of AChE is present at the bottom of a gorge that is lined with hydrophobic amino acid residues. The terminal dipiperidino moiety in CPT-11 that interacts with amino acid residues within AChE plays a major role in enzyme inhibition, which has been confirmed by X-ray crystallographic studies.
The AChE inhibition by all compounds was studied according to a modification of the method of Ellman et al.. The activity was assayed with AChE from electric eel in the presence or absence of the test compounds in phosphate buffer (pH7.3). After the incubation at 37 °C for 1 min, 0.38 mM 5,5-dithiobisnitrobenzoic acid and 0.56 mM ATCh were added to the buffer. The changes in absorbance were read at 412 nm, per 15 s intervals for 3 min by a spectrophotometer (UV-2500, Shimadzu Corp., Kyoto, Japan).

[3] = Chemical stability of the prodrugs in PBS (HPLC); format: physicochemical; settings: for Remaining Prodrugs 1 h pH 4.6 / Remaining Prodrugs 12 h pH 4.6: PBS pH 4.6, 37 °C; for Remaining Prodrugs 1 h pH 7.4 / Remaining Prodrugs 12 h pH 7.4: PBS pH 7.4, 37 °C
Description: They were stable at pH 4.6 at 37 °C for 12 h. Except for compound 5h, less than 35% of the prodrugs remained after incubation for 12 h in pH 7.4 buffer. […] For example, less than 30% of the prodrugs 7a–f remained, while more than 85% of the prodrugs 5a–h remained after incubation for 1 h in pH 7.4 buffer.
The stability of all compounds was investigated in PBS and human plasma by HPLC using a C18 analytical column. The mobile phase was composed of water and acetonitrile at a ratio of 70:30, respectively, containing 1% trifluoroacetic acid. The amount of the compound and its metabolite SN-38 were flowed at the rate of 0.8 mL·min^−1 and detected by the UV wavelength of 370 nm. Stability test in PBS: each compound was dissolved in PBS (pH 7.4 and pH 4.6), incubated at 37 °C and analyzed at 1, 3, 6, 12 h. Stability test in plasma: The test compounds were dissolved in DMSO and diluted to 1 mM by 0.9% physiological saline. Forty μL of each solution was added into plasma with a final concentration of 0.1 mM. The mixture was incubated in a 37 °C water bath following the vigorous vortex mixing for 15 s. Samples were analyzed at 1, 3, 6, 12 h. 400 μL of cold acetonitrile (containing 1% trifluoroacetic acid) was added to each sample, vortex-mixed for 15 s and centrifuged at 3500 rpm for 15 min at 4 °C.

[4] = tested on: human colon adenocarcinoma SW1116 xenografts; experiment: Tumor growth inhibition in human colon adenocarcinoma SW1116 xenografts in nude mice; format: in vivo; settings: 60 mg/kg; for Tumor Weight: SW1116 xenograft nude mice, x ± SD; for Body Weight Change: once per day for 6 days, nude mice
Description: The antitumor activity of 5e, compared with CPT-11 and SN-38, was investigated in human colon adenocarcinoma SW1116 xenografts in nude mice. The model animals were divided into four experimental groups, eight animals per group. Tested compouds were each administered by injection in the tumor section once per day for contiguous 6 days. The injection doses of test compound 5e, CPT-11, and SN-38 were 60 mg/kg, respectively. Using the vehicle group as the control, we tested the inhibitory activities of these compounds for 6 days and measured the changes in body weight and tumor size every 2 days. […] No toxic death occurred after drug treatment, and the body weight losses induced by 5e, CPT-11, and SN-38 at the given dose were similar.

[5] = set-up: method as in PMID 11716702, PMID 15217940, PMID 19495753; settings: cited from earlier work
[6] = injection in the tumor section once per day for 6 days

**Q.** What does the source list for `CCc1c2c(nc3ccc(OC(=O)NC(C)C(=O)O)cc13)-c1cc3c(c(=O)n1C2)COC(=O)[C@]3(O)CC` (some centres unmarked) [Compound 5b, 10-OCO-(Ala-OH)-SN-38]?
**A.** IC50 ([1]; SGC-7901, 72 h): 1750 ± 600 nM; IC50 ([2]; 72 h, read-out: IC50 HeLa): 9.85 nM

**Q.** Which IC50 ([1]; SGC-7901, 72 h) does the source give for `CCc1c2c(nc3ccc(OC(=O)NC(C)C(=O)NC(CCC(=O)O)C(=O)O)cc13)-c1cc3c(c(=O)n1C2)COC(=O)[C@]3(O)CC` (stereo partly drawn) [Compound 7f, 10-OCO-(Glu-Ala-OH)-SN-38] here?
**A.** Its IC50 is 270 ± 180 nM.

**Q.** What about the “fold greater antiproliferative activity (lower IC50) than irinotecan, SGC-7901 cells” value [1] of the same compound?
**A.** The value was 30 fold.

**Q.** And the IC50 ([2]; 72 h, read-out: IC50 HeLa)?
**A.** Its IC50 is 1.57 nM.

**Q.** What about the IC50 ([2]; 72 h, read-out: IC50 against HeLa cells) of the same compound?
**A.** Its IC50 is under 3.2 nM.

**Q.** What about the IC50 (AChE from electric eel; AChE IC50, electric eel AChE) of the same compound?
**A.** The IC50 was 36.1 µM.

**Q.** What about the “Remaining Prodrugs 1 h pH 4.6” value [3] of the same compound?
**A.** The value was 100%.

**Q.** What about the “Remaining Prodrugs 12 h pH 4.6” value [3] of the same compound?
**A.** The value was 94.7%.

**Q.** And the “Remaining Prodrugs 1 h pH 7.4” value [3]?
**A.** Its value is 14.4%.

**Q.** What about the “Remaining Prodrugs 12 h pH 7.4” value [3] of the same compound?
**A.** Its value is 0%.

**Q.** Which IC50 ([1]; SGC-7901, MTT, 72 h incubation) does the source give for `CCc1c2c(nc3ccc(OC(=O)N4CCC(N5CCCCC5)CC4)cc13)-c1cc3c(c(=O)n1C2)COC(=O)[C@]3(O)CC` [Irinotecan, 7-ethyl-10-[4-(1-piperidino)-1-piperidino]-carbonyloxycamptothecin] here?
**A.** The IC50 was 7380 ± 1240 nM.

**Q.** And the IC50 ([2]; MTT, 72 h incubation, read-out: IC50 HeLa)?
**A.** The IC50 was 1320 ± 130 nM.

**Q.** And the IC50 (AChE from electric eel; electric eel AChE, read-out: AChE IC50)?
**A.** Its IC50 is 0.2 µM.

**Q.** What about the “Tumor Weight” value [4, 6] of the same compound?
**A.** The value was 0.17 ± 0.04 g/10g.

**Q.** What about the “Inhibitory Rate” value ([4]; injection in the tumor section once per day for 6 days, day 6, vs vehicle) of the same compound?
**A.** Its value is 51%.

**Q.** And the “Body Weight Change” value [4]?
**A.** Its value is -3.10 g.

**Q.** What about the “Body Weight Change” value ([4]; listed as CPT-11) of the same compound?
**A.** Its value is “similar”.

**Q.** What about the “bioconversion efficiency from irinotecan to the active form SN-38” value [5] of the same compound?
**A.** Its value is 4%–5%.

**Q.** Which IC50 ([1]; SGC-7901, 72 h) does the source give for `CCc1c2c(nc3ccc(OC(=O)NC(C)C(=O)N[C@@H](CC(=O)O)C(=O)O)cc13)-c1cc3c(c(=O)n1C2)COC(=O)[C@]3(O)CC` (stereo partly drawn) [Compound 7e, 10-OCO-(L-Asp-Ala-OH)-SN-38] here?
**A.** The IC50 was 210 ± 550 nM.

**Q.** What about the IC50 ([2]; 72 h, read-out: IC50 HeLa) of the same compound?
**A.** The IC50 was 12.9 nM.

**Q.** What about the “Remaining Prodrugs 1 h pH 4.6” value [3] of the same compound?
**A.** Its value is 100%.

**Q.** What about the “Remaining Prodrugs 12 h pH 4.6” value [3] of the same compound?
**A.** The value was 94.5%.

**Q.** And the “Remaining Prodrugs 1 h pH 7.4” value [3]?
**A.** Its value is 23.4%.

**Q.** And the “Remaining Prodrugs 12 h pH 7.4” value [3]?
**A.** Its value is 0%.

**Q.** Which IC50 ([1]; SGC-7901, 72 h) does the source give for `CCc1c2c(nc3ccc(OC(=O)NC(C)C(=O)N[C@H](CC(=O)O)C(=O)O)cc13)-c1cc3c(c(=O)n1C2)COC(=O)[C@]3(O)CC` (stereo partly drawn) [Compound 7d, 10-OCO-(D-Asp-Ala-OH)-SN-38] here?
**A.** Its IC50 is 260 ± 640 nM.

**Q.** What about the “fold greater antiproliferative activity (lower IC50) than irinotecan, SGC-7901 cells” value [1] of the same compound?
**A.** Its value is 30 fold.

**Q.** What about the IC50 ([2]; 72 h, read-out: IC50 HeLa) of the same compound?
**A.** Its IC50 is under 3.2 nM.

**Q.** What about the IC50 (AChE from electric eel; AChE IC50, electric eel AChE) of the same compound?
**A.** Its IC50 is 4.44 µM.

**Q.** What about the “Remaining Prodrugs 1 h pH 4.6” value [3] of the same compound?
**A.** Its value is 100%.

**Q.** And the “Remaining Prodrugs 12 h pH 4.6” value [3]?
**A.** Its value is 95.5%.

**Q.** And the “Remaining Prodrugs 1 h pH 7.4” value [3]?
**A.** The value was 26.3%.

**Q.** And the “Remaining Prodrugs 12 h pH 7.4” value [3]?
**A.** Its value is 0%.

**Q.** For `CCc1c2c(nc3ccc(OC(=O)NC(CC(C)C)C(=O)O)cc13)-c1cc3c(c(=O)n1C2)COC(=O)[C@]3(O)CC` (some centres unmarked) [Compound 5e, 10-OCO-(Leu-OH)-SN-38], which IC50 ([1]; SGC-7901, 72 h) is on record?
**A.** The IC50 was 500 ± 190 nM.

**Q.** What about the IC50 ([2]; 72 h, read-out: IC50 HeLa) of the same compound?
**A.** Its IC50 is 1.82 nM.

**Q.** What about the “Tumor Weight” value [4, 6] of the same compound?
**A.** Its value is 0.17 ± 0.05 g/10g.

**Q.** Which results are given for `CCc1c2c(nc3ccc(OC(=O)NCC(=O)N[C@H](CC(=O)O)C(=O)O)cc13)-c1cc3c(c(=O)n1C2)COC(=O)[C@]3(O)CC` [Compound 7a, 10-OCO-(D-Asp-Gly-OH)-SN-38]?
**A.** IC50 ([1]; SGC-7901, 72 h): 1040 ± 900 nM; IC50 ([2]; 72 h, read-out: IC50 HeLa): < 3.2 nM; IC50 (AChE from electric eel; AChE IC50, electric eel AChE): 116 µM; Remaining Prodrugs 1 h pH 4.6 [3]: 100%; Remaining Prodrugs 12 h pH 4.6 [3]: 96.8%; Remaining Prodrugs 1 h pH 7.4 [3]: 26.0%; Remaining Prodrugs 12 h pH 7.4 [3]: 0%

**Q.** What does the source list for `CCc1c2c(nc3ccc(OC(=O)N[C@H](CC(=O)O)C(=O)O)cc13)-c1cc3c(c(=O)n1C2)COC(=O)[C@]3(O)CC` [Compound 5g, 10-OCO-(L-Asp-OH)-SN-38]?
**A.** IC50 ([1]; SGC-7901, 72 h): 980 ± 50 nM; IC50 ([2]; 72 h, read-out: IC50 HeLa): 9.07 nM; IC50 (AChE from electric eel; AChE IC50, electric eel AChE): 3.08 µM; Remaining Prodrugs 1 h pH 4.6 [3]: 100%; Remaining Prodrugs 12 h pH 4.6 [3]: 94.5%; Remaining Prodrugs 1 h pH 7.4 [3]: 93.9%; Remaining Prodrugs 12 h pH 7.4 [3]: 34.1%
